# What was measured:
# [1] = molecular target: RNA-directed RNA polymerase (Hepacivirus hominis, UniProt O39930, S282T); assay: Inhibition of purified Hepatitis C virus NS5B polymerase S282T mutant; set-up: species or system Hepatitis C virus subtype 1b
# [2] = Inhibition of purified wild type Hepatitis C virus 1b NS5B polymerase; set-up: species or system Hepatitis C virus subtype 1b
# Hepatitis C virus = assay: Antiviral activity against wild type Hepatitis C virus genotype 1b infected in human HuH7 cells after 72 hrs by luciferase reporter gene assay; format: functional, cell-based, Hepacivirus hominis; conditions: Huh-7, 72 h
# [3] = Cytotoxicity against human HuH7 cells up to 100 uM after 3 hrs by CellTiter-Blue cell viability assay; format: cell-based; conditions: huh-7, 3 h
# [4] = test system: Hepatitis C virus subtype 1b; assay: Selectivity ratio of IC50 for Hepatitis C virus NS5B polymerase S282T mutant to wild type Hepatitis C virus 1b NS5B polymerase
# [5] = Inhibition of purified wild type Hepatitis C virus 2a NS5B polymerase; set-up: species or system Hepatitis C virus subtype 2a
# [6] = Inhibition of purified wild type Hepatitis C virus 3a NS5B polymerase; set-up: species or system Hepatitis C virus subtype 3a
# [7] = Inhibition of purified wild type Hepatitis C virus 1a NS5B polymerase; set-up: species or system Hepatitis C virus subtype 1a
# [8] = Inhibition of purified wild type Hepatitis C virus 4a NS5B polymerase; set-up: species or system Hepatitis C virus subtype 4a
# Chain of RNA-directed RNA polymerase (O39930 entry or part of it S282T): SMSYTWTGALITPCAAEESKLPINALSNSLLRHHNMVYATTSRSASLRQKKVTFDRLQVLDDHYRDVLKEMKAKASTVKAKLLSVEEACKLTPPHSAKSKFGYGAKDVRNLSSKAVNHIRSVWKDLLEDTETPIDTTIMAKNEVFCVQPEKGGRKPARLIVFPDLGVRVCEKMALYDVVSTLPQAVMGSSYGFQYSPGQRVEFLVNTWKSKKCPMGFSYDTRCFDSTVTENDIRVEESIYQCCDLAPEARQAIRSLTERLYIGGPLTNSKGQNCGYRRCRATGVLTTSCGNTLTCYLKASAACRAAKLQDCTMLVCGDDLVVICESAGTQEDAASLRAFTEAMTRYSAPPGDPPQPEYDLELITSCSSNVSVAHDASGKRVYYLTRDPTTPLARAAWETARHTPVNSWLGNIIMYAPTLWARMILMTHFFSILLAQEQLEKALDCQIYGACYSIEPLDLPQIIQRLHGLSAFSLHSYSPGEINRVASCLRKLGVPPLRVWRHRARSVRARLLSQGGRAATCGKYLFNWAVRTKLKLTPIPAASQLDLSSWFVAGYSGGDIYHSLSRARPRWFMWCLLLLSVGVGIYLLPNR
EC50 (Hepatitis C virus) [µM],SMILES,IC50 [1] [µM],IC50 [2] [µM],Activity [3],also measured
,CC(OP(=O)(O)OP(=O)(O)OP(=O)(O)O)[C@@]12CO[C@@H]([C@H](n3cnc4c(=O)[nH]c(N)nc43)O1)[C@@H]2O (stereo in doubt; form 1),25.1,15.9,,
> 50,CC(O)[C@@]12CO[C@@H]([C@H](n3cnc4c(=O)[nH]c(N)nc43)O1)[C@@H]2O (mixture of isomers),,,Non-toxic,
,CC(OP(=O)(O)OP(=O)(O)OP(=O)(O)O)[C@@]12CO[C@@H]([C@H](n3cnc4c(=O)[nH]c(N)nc43)O1)[C@@H]2O (stereo in doubt; form 2),> 100,> 100,,
> 50,Nc1nc2c(ncn2[C@@H]2O[C@@]3(CO)CCO[C@@H]2[C@@H]3O)c(=O)[nH]1,,,Non-toxic,
,Nc1nc2c(ncn2[C@@H]2O[C@@]3(COP(=O)(O)OP(=O)(O)OP(=O)(O)O)CCO[C@@H]2[C@@H]3O)c(=O)[nH]1,> 100,> 100,,
,Nc1ncnc2c1ncn2[C@@H]1O[C@@]2(COP(=O)(O)OP(=O)(O)OP(=O)(O)O)CO[C@@H]1[C@@H]2O,86.3,39.8,,
,Nc1ccn([C@@H]2O[C@@]3(COP(=O)(O)OP(=O)(O)OP(=O)(O)O)CO[C@@H]2[C@@H]3O)c(=O)n1,1.44,1.39,,
,C[C@]12OC[C@](COP(=O)(O)OP(=O)(O)OP(=O)(O)O)(O[C@H]1n1cnc3c(=O)[nH]c(N)nc31)[C@H]2O,0.48,0.2,,Ratio IC50 [4]: 2
> 50,O=c1ccn([C@@H]2O[C@@]3(CO)CO[C@@H]2[C@@H]3O)c(=O)[nH]1,,,Non-toxic,
,Nc1nc2c(ncn2[C@@H]2O[C@@]3(COP(=O)(O)OP(=O)(O)OP(=O)(O)O)CO[C@@H]2[C@@H]3O)c(=O)[nH]1,0.38,0.39,,IC50 [5]: 0.29 µM; IC50 [6]: 0.2 µM; IC50 [7]: 0.37 µM; IC50 [8]: 0.31 µM
> 50,Nc1nc2c(ncn2[C@@H]2O[C@@]3(CO)CO[C@@H]2[C@@H]3O)c(=O)[nH]1,,,Non-toxic,
> 50,C[C@]12OC[C@](CO)(O[C@H]1n1cnc3c(=O)[nH]c(N)nc31)[C@H]2O,,,Non-toxic,
,O=c1ccn([C@@H]2O[C@@]3(COP(=O)(O)OP(=O)(O)OP(=O)(O)O)CO[C@@H]2[C@@H]3O)c(=O)[nH]1,12.8,3.84,,
> 50,Nc1ncnc2c1ncn2[C@@H]1O[C@@]2(CO)CO[C@@H]1[C@@H]2O,,,Non-toxic,
> 50,Nc1ccn([C@@H]2O[C@@]3(CO)CO[C@@H]2[C@@H]3O)c(=O)n1,,,Non-toxic,

# — ChEMBL document CHEMBL3286168, “Synthesis of 2'-O,4'-C-alkylene-bridged ribonucleosides and their evaluation as inhibitors of HCV NS5B polymerase” (Bioorg Med Chem Lett, 2014)
